Laboratory results as given in patent US20240156832A1, “METHODS OF METABOLIZING METOPIMAZINE AND ITS SALTS” (Neurogastrx, Inc., priority 2020, published 2024).
“Also recorded” adds a separate entry of the source.

Key:
[1] = tested on: human microsomal liver amidase; experiment: Incubations with HLM for microsomal hydrolase/amidase activity; type: in vitro ADME
Experimental: Incubations with HLM for Microsomal Hydrolase/Amidase Activity Prior to the reaction for amidase activity, the reaction mixture containing KPi buffer (pH 7.4, 8.4, or 9.4) and HLM was pre-incubated at 50° C. for 5 minutes to inactivate CYP and FMO activities in HLM. The mixture was placed on ice to cool down. An aliquot was taken out which was considered as t=0 min incubation. Then 10 μM MPZ was added into the remaining mixture and incubated at 37° C. on an orbital shaker for 60 minutes. A parallel set of incubations was conducted with 10 μM MPZ in the presence at 2 and 16 μM, of BNPP (a known inhibitor of amidase). All reactions were in triplicate. The total percentage of organic solvent in incubation mixture was ≤0.1%. The reactions were terminated by the addition of chilled acetonitrile: methanol, 90:10, (v/v). The samples were vortex-mixed and stored at ≤−70° C. and were subjected analyzed by LC MS/MS.

[2] = tested on: cytochrome P450 enzymes in HLM; experiment: HLM incubation with CYP inhibitors, with and without NADPH; settings: peak area ratio, 60 min, ABT 1 mM, quinidine 1 μM
Experimental: Initially, two sets of incubations were conducted with HLM (0.5 mg/mL microsomal protein), 1 and 1011M MPZ, 100 mM KPi buffer (pH 7.4) where one set was in the presence and the other set was in the absence of 1 mM ABT, a non-specific CYP inhibitor for 60 minutes. This allowed the assessment of total CYP contribution for MPZ metabolism. Then, CYP-specific chemical inhibitors were used to assess the contribution of individual major CYP-isoforms where HLM were incubated with 1 or 1011M MPZ in the presence and in the absence of each CYP specific inhibitor at 37° C. for 60 minutes. The following CYP-isoform specific chemical inhibitors were used; furafylline (10 μM), tranylcypromine (10 μM), montelucast (0.5 μM), sulfaphenazole (5 μM), (+) benzylnirvinol (5 μM), quinidine (1 μM) and itraconazole (2.5 μM), for CYP1A2, CYP2B6, CYP2C8, CYP2C9, CYP2C19, CYP2D6 and CYP3A4/5. Parallel incubation with seven CYP specific probe substrates were included in as positive controls. For negative control reaction, MPZ was incubated at 37° C. in duplicate in reaction mixture devoid of NADPH. All other procedures were the same as previously described.

[3] = Experimental: For protein concentration optimization, MPZ at 1 μM was incubated with varying concentration of HLM proteins (0.1, 0.25, 0.5, and 1.0 mg/mL microsomal protein), 100 mM KPi buffer (pH 7.4). After pre-incubation for 3-5 minutes at 37° C., the reaction was initiated by the addition of NADPH (1 mM) for 60 minutes in triplicates.
For incubation time optimization, MPZ at 1 μM was incubated with pooled HLM (0.5 mg/mL microsomal protein) and 100 mM KPi buffer (pH 7.4). After pre-incubation for) for 3-5 minutes at 37° C., the reaction was initiated by the addition NADPH (1 mM) incubated for 0, 10, 20, 40, 60, and 90 minutes to determine the optimal incubation time (linear range). All metabolic reactions in this study were terminated by the addition of chilled organic solvent (acetonitrile:ethanol 90:10, v/v) containing internal standards, unless otherwise indicated.
LC separation conditions were developed for MPZ and its metabolites (MPZA and MPZS), 7 hydroxycoumarin, each metabolite of CYP probe substrate, benzydamine N oxide, and phthalazine. The LC MS/MS system consisted of a Shimadzu Nexera X2 LC-30 UPLC system (Shimadzu Corporation, Kyoto, Japan), and an API 4000 triple quadrupole mass spectrometer (SCIEX, Framingham, MA) was used for analysis. All analytes were analyzed using electrospray ionization (ESI) in positive ion mode except for 7-EC, which used negative ion mode. The LC-MS/MS system was controlled by Analyst software (version 1.6.1, SCIEX, Framingham, MA).
For each analytical method, a calibration curve was generated for the quantification of MPZ and its two metabolites (MPZA and MPZS). […] PAR was also used for all positive control compounds.
% parent remaining=(mean concentration or PAR at each sampling time point/mean concentration or PAR of time zero)×100

[4] = Incubation of MPZ in human liver S9; type: in vitro ADME; settings: human liver S9, 60-minute incubation
Experimental: Initial experiment was conducted with S9 fractions from liver and intestine to assess the role of liver and intestinal enzymes in the metabolism of MPZ. The reaction mixture contained 2.5 μM MPZ, pooled human liver or intestine S9 fraction (1 mg/mL S9 protein), 100 mM KPi buffer (pH 7.4). The reaction mixture was pre-incubated for 3-5 min at 37° C. in a humidified incubator filled with 5% CO2 followed by the addition of NADPH (1 mM) to initiate the reaction. The reaction was incubated for 0 and 60 min. The total percentage of organic solvent in incubation mixture was <0.1%. The reactions were terminated by the addition of sample mixture of acetonitrile and ethanol (90:10, v/v). The positive control substrate, 7-EC, was incubated in triplicate in an identical manner as MPZ for S9 fractions.

microsomal FMOs in HLM = experiment: Incubation with HLM for FMO (pH 8.4, methimazole, heat); type: in vitro ADME, human; settings: HLM pH 8.4, 1 mM methimazole
Experimental: MPZ, at 1.0 and 10.0 μM, was incubated with HLM or HKM to determine the contribution of microsomal FMOs on the metabolism of MPZ.
A reaction mixture containing KPi buffer (pH 8.4), HLM or HKM (0.5 mg/mL protein) and MPZ (1.0 and 10.0 μM) was pre-incubated for 3-5 minutes at 37° C. The reaction was initiated by the addition of NADPH into the reaction mixture. Reaction was conducted for 0 and 60 min. A positive control (benzydamine, 100 μM) was incubated in duplicate for 0 and 20 minutes. Parallel incubation was conducted by adding 1 mM methimazole, a non-specific FMO inhibitor, under identical conditions. Heat inactivated microsomes (50° C. for at least 5 minutes) was incubated under identical conditions negative control. All other procedures were the same as described previously.

With O=[N+]([O-])c1ccc(OP(=O)(O)Oc2ccc([N+](=O)[O-])cc2)cc1 [BNPP, bis(4-nitrophenyl) phosphate] the “activity (MPZA formation) inhibited” value ([1]; BNPP 2 μM, HLM, 10 μM MPZ, even at the highest pH) was “at least 97%”, the MPZA formation inhibited ([1]; BNPP 16 μM, HLM, 10 μM MPZ, all three pH values) was > 99% and the “inhibition of MPZA formation in HLM (in words)” value ([1]; BNPP 2 and 16 μM, pH 7.4, 8.4, 9.4) was “dramatically inhibited the formation of MPZA in HLM; also recorded: effectively inhibits formation of MPZA under all conditions”.

With C=C[C@H]1C[N@@]2CC[C@H]1C[C@@H]2[C@@H](O)c1ccnc2ccc(OC)cc12 [quinidine, reference compound] the “effect of CYP inhibitor on MPZH formation” value [2] was “inhibited formation of MPZH”.

In the case of metopimazine sulfoxide [MPZS], the “Peak Area at Time 0” value [3] is reported as 0, the “Peak Area at Time 90 min” value [3] is reported as 59 and the metabolites formed [4] is reported as “formed”.

In the case of Cn1cc[nH]c1=S [methimazole, reference compound], the “effect of FMO inhibitor on MPZA formation” value (microsomal FMOs in HLM) is reported as “not inhibited”.
